According to patent publication US20120121540A1 (priority 2007, published 2012):

Experiment: HCV replicon assay (luciferase reporter, ET cell line)
Format: cell-based
Conditions: Hepatitis C virus, HCV replicon luciferase activity in ET cells
Method in brief: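 ET cells carry a stable luciferase-ubiquitin-neo/NS3-5B subgenomic HCV replicon with adaptive mutations. Compounds (0.1 nM to […], 0.5% DMSO) were added 24 h after plating, and luciferase was read 48-72 h later. EC50 came from 10-point 2-fold dilutions fitted to a Hill equation; TC50 was measured in parallel by WST-1.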

Compound	inhibition at 10 µM [%]
C#Cc1cc(C(F)(F)F)c2nc(C(=O)NCc3cccs3)c(Cl)n2c1 [Compound 297, 3-Chloro-6-ethynyl-8-trifluoromethyl-imidazo[1,2-a]pyridine-2-carboxylic Acid (thiophen-2-ylmethyl)-amide]	29.3
O=C(NCc1cccs1)c1nc2c(C(F)(F)F)cc(-c3cccc(F)c3)cn2c1I [Compound 299, 6-(3-Fluoro-phenyl)-3-iodo-8-trifluoromethyl-imidazo[1,2-a]pyridine-2-carboxylic Acid(thiophen-2-ylmethyl)-amide]	97.6
C/C=C\c1c(C(=O)NCc2cccs2)nc2c(C(F)(F)F)cc(-c3cccc(F)c3)cn12 [Compound 300, 6-(3-Fluoro-phenyl)-3-propenyl-8-trifluoromethyl-imidazo[1,2-a]pyridine-2-carboxylic Acid(thiophen-2-ylmethyl)-amide]	76.9
O=C(NCc1cccs1)c1nc2c(C(F)(F)F)cc(-c3cccc(F)c3)cn2c1-c1cn[nH]c1 [Compound 301, 6-(3-Fluoro-phenyl)-3-(1H-pyrazol-4-yl)-8-trifluoromethyl-imidazo[1,2-a]pyridine-2-carboxylic Acid (thiophen-2-ylmethyl)-amide]	79.9
C=C(C)c1c(C(=O)NCc2cccs2)nc2c(C(F)(F)F)cc(-c3cccc(F)c3)cn12 [Compound 302, 6-(3-Fluoro-phenyl)-3-isopropenyl-8-trifluoromethyl-imidazo[1,2-a]pyridine-2-carboxylic Acid (thiophen-2-ylmethyl)-amide]	69.5
O=C(NCc1cccs1)c1nc2c(C(F)(F)F)cc(-c3cccc(F)c3)cn2c1C1=CCCCC1 [Compound 303, 3-Cyclohex-1-enyl-6-(3-fluoro-phenyl)-8-trifluoromethyl-imidazo[1,2-a]pyridine-2-carboxylic Acid (thiophen-2-ylmethyl)-amide]	39.7
O=C(NCc1cccs1)c1nc2c(C(F)(F)F)cc(-c3cccc(F)c3)cn2c1C#Cc1cccnc1 [Compound 305, 6-(3-Fluoro-phenyl)-3-pyridin-3-ylethynyl-8-trifluoromethyl-imidazo[1,2-a]pyridine-2-carboxylic Acid (thiophen-2-ylmethyl)-amide]	59.5
O=C(NCc1cccs1)c1nc2c(C(F)(F)F)cc(-c3cccc(F)c3)cn2c1C#CCCO [Compound 306, 6-(3-Fluoro-phenyl)-3-(4-hydroxy-but-1-ynyl)-8-trifluoromethyl-imidazo[1,2-a]pyridine-2-carboxylic Acid (thiophen-2-ylmethyl)-amide]	62.5
CC(C)(C)C#Cc1c(C(=O)NCc2cccs2)nc2c(C(F)(F)F)cc(-c3cccc(F)c3)cn12 [Compound 307, 3-(3,3-Dimethyl-but-1-ynyl)-6-(3-fluoro-phenyl)-8-trifluoromethyl-imidazo[1,2-a]pyridine-2-carboxylic Acid (thiophen-2-ylmethyl)-amide]	33.5
O=C(NCc1cccs1)c1nc2c(C(F)(F)F)cc(-c3cn[nH]n3)cn2c1Cl [Compound 308, 3-Chloro-6-(2H-[1,2,3]triazol-4-yl)-8-trifluoromethyl-imidazo[1,2-a]pyridine-2-carboxylic Acid (thiophen-2-ylmethyl)-amide]	88.2
N#Cc1cc(C(F)(F)F)c2nc(C(=O)NCc3cccs3)c(Cl)n2c1 [Compound 309, 3-Chloro-6-cyano-8-trifluoromethyl-imidazo[1,2-a]pyridine-2-carboxylic Acid (thiophen-2-ylmethyl)-amide]	1.8
O=C(NCc1cccs1)c1nc2c(C(F)(F)F)cc(-c3ncon3)cn2c1Cl [Compound 311, 3-Chloro-6-[1,2,4]oxadiazol-3-yl-8-trifluoromethyl-imidazo[1,2-a]pyridine-2-carboxylic Acid (thiophen-2-ylmethyl)-amide]	83.2
COC(=O)c1cc(C(F)(F)F)c2nc(C(=O)NCc3cccs3)c(Cl)n2c1 [Compound 312, 3-Chloro-2-[(thiophen-2-ylmethyl)-carbamoyl]-8-trifluoromethyl-imidazo[1,2-a]pyridine-6-carboxylic Acid Methyl Ester]	76.2
O=C(NCc1cccs1)c1cn2cc(-c3cccc(F)c3)cc(C(F)(F)F)c2n1 [Compound 314, 6-(3-Fluoro-phenyl)-8-trifluoromethyl-imidazo[1,2-a]pyridine-2-carboxylic Acid (thiophen-2-ylmethyl)-amide]	49.6
O=C(c1nc2c(C(F)(F)F)cc(-c3ccco3)cn2c1Cl)N1CCC(c2ccc(F)cc2)C1 (centres unmarked) [Compound 316, (3-Chloro-6-furan-2-yl-8-trifluoromethyl-imidazo[1,2-a]pyridin-2-yl)-[3-(4-fluoro-phenyl)-pyrrolidin-1-yl]-methanone]	89.2
O=C(c1nc2c(C(F)(F)F)cc(-c3ccco3)cn2c1Cl)N1CCC(O)(c2ccccc2)C1 (centres unmarked) [Compound 317, (3-Chloro-6-furan-2-yl-8-trifluoromethyl-imidazo[1,2-a]pyridin-2-yl)-(3-hydroxy-3-phenyl-pyrrolidin-1-yl)-methanone]	94.6

Compound	inhibition at 10 µM [%]
CN1CCN(C(=O)c2nc3c(C(F)(F)F)cc(-c4ccco4)cn3c2Cl)CC1c1ccccc1 (centres unmarked) [Compound 318, (3-Chloro-6-furan-2-yl-8-trifluoromethyl-imidazo[1,2-a]pyridin-2-yl)-(4-methyl-3-phenyl-piperazin-1-yl)-methanone]	62.4
CN(C)CCN(Cc1cccs1)C(=O)c1nc2c(C(F)(F)F)cc(-c3ccco3)cn2c1Cl [Compound 319, 3-Chloro-6-furan-2-yl-8-trifluoromethyl-imidazo[1,2-a]pyridine-2-carboxylic Acid (2-dimethylamino-ethyl)-thiophen-2-ylmethyl-amide]	58.8
CN1CCN(C(=O)c2nc3c(C(F)(F)F)cc(-c4ccco4)cn3c2Cl)C(c2ccccc2)C1 (centres unmarked) [Compound 320, (3-Chloro-6-furan-2-yl-8-trifluoromethyl-imidazo[1,2-a]pyridin-2-yl)-(4-methyl-2-phenyl-piperazin-1-yl)-methanone]	0.6
O=C(NCCc1ccccc1)c1nc2c(C(F)(F)F)cc(-c3ccco3)cn2c1Cl [Compound 321, 3-Chloro-6-furan-2-yl-8-trifluoromethyl-imidazo[1,2-a]pyridine-2-carboxylic Acid phenethyl-amide]	78.2
O=C(c1nc2c(C(F)(F)F)cc(-c3ccco3)cn2c1Cl)N1CCCC1c1ccccc1 (centres unmarked) [Compound 322, (3-Chloro-6-furan-2-yl-8-trifluoromethyl-imidazo[1,2-a]pyridin-2-yl)-(2-phenyl-pyrrolidin-1-yl)-methanone]	78.7
O=C(c1nc2c(C(F)(F)F)cc(-c3ccco3)cn2c1Cl)N1CCN(c2ccccc2)CC1 [Compound 323, (3-Chloro-6-furan-2-yl-8-trifluoromethyl-imidazo[1,2-a]pyridin-2-yl)-(4-phenyl-piperazin-1-yl)-methanone]	54.6
O=C(c1nc2c(C(F)(F)F)cc(-c3ccco3)cn2c1Cl)N1CCN(Cc2ccccc2)CC1 [Compound 324, (4-Benzyl-piperazin-1-yl)-(3-chloro-6-furan-2-yl-8-trifluoromethyl-imidazo[1,2-a]pyridin-2-yl)-methanone]	34.6
O=C(c1nc2c(C(F)(F)F)cc(-c3ccco3)cn2c1Cl)N1CCC(Cc2ccccc2)C1 (centres unmarked) [Compound 326, (3-Benzyl-pyrrolidin-1-yl)-(3-chloro-6-furan-2-yl-8-trifluoromethyl-imidazo[1,2-a]pyridin-2-yl)-methanone]	66.7
Cn1cncc1CNC(=O)c1nc2c(C(F)(F)F)cc(-c3ccco3)cn2c1Cl [Compound 327, 3-Chloro-6-furan-2-yl-8-trifluoromethyl-imidazo[1,2-a]pyridine-2-carboxylic Acid (3-methyl-3H-imidazol-4-ylmethyl)-amide]	95.4
O=C(c1nc2c(C(F)(F)F)cc(-c3ccco3)cn2c1Cl)N1CC(Cc2ccccc2)C1 [Compound 328, (3-Benzyl-azetidin-1-yl)-(3-chloro-6-furan-2-yl-8-trifluoromethyl-imidazo[1,2-a]pyridin-2-yl)-methanone]	72.5
O=C(c1nc2c(C(F)(F)F)cc(-c3ccco3)cn2c1Cl)N1CCCC1c1ccc(F)cc1 (centres unmarked) [Compound 329, (3-Chloro-6-furan-2-yl-8-trifluoromethyl-imidazo[1,2-a]pyridin-2-yl)-[2-(4-fluoro-phenyl)-pyrrolidin-1-yl]-methanone]	97.6
CC1(C)CCCN1C(=O)c1nc2c(C(F)(F)F)cc(-c3ccoc3)cn2c1Cl [Compound 330, (3-Chloro-6-furan-3-yl-8-trifluoromethyl-imidazo[1,2-a]pyridin-2-yl)-(2,2-dimethyl-pyrrolidin-1-yl)-methanone]	34.4
O=C(c1nc2c(C(F)(F)F)cc(-c3ccoc3)cn2c1Cl)N1CCCC1c1ccccn1 (centres unmarked) [Compound 331, (3-Chloro-6-furan-3-yl-8-trifluoromethyl-imidazo[1,2-a]pyridin-2-yl)-(2-pyridin-2-yl-pyrrolidin-1-yl)-methanone]	53.3
CN(Cc1cccs1)C(=O)c1nc2c(C(F)(F)F)cc(-c3ccoc3)cn2c1Cl [Compound 332, 3-Chloro-6-furan-3-yl-8-trifluoromethyl-imidazo[1,2-a]pyridine-2-carboxylic Acid Methyl-thiophen-2-ylmethyl-amide]	37.7
O=C(c1nc2c(C(F)(F)F)cc(-c3ccoc3)cn2c1Cl)N1CCC(c2ccccc2F)C1 (centres unmarked) [Compound 333, (3-Chloro-6-furan-3-yl-8-trifluoromethyl-imidazo[1,2-a]pyridin-2-yl)-[3-(2-fluoro-phenyl)-pyrrolidin-1-yl]-methanone]	98.9
O=C(c1nc2c(C(F)(F)F)cc(-c3ccoc3)cn2c1Cl)N1CCC(c2cccc(F)c2)C1 (centres unmarked) [Compound 334, (3-Chloro-6-furan-3-yl-8-trifluoromethyl-imidazo[1,2-a]pyridin-2-yl)-[3-(3-fluoro-phenyl)-pyrrolidin-1-yl]-methanone]	96.1
